Assay results published in patent US12409172B2, “Dosage regimen” (UNION therapeutics A/S, priority 2023, dated 2025).

Legend:
[1] = system: adults with moderate-to-severe plaque-type psoriasis; test: Phase 2b dose-ranging study in psoriasis (Example 3): treatment-emergent adverse events and discontinuations; format: in vivo, human
Description: • Percentage change in Psoriasis […] and Severity Index (PASI) score from Baseline at Week 16. Key Secondary Endpoints • Patients achieving 75% reduction in PASI (PASI75) response at Week 16. • Patients achieving a score of Clear (0) or Almost Clear (1) and an at least 2-point improvement in Investigator Global Assessment (IGA) at Week 16. […] Safety Endpoints: • The occurrence, severity, and seriousness of treatment-emergent adverse events (TEAEs) reported over the 16-week Treatment Period and the 4-week Follow-up Period. • Changes from Baseline in physical examination; vital sign measurements (body temperature, respiration rate, heart rate, and systolic and diastolic blood pressure measurements); and body weight over the 16-week Treatment Period and the 4-week Follow-up Period. • Changes from Baseline in electrocardiogram (ECG) findings over the 16-week Treatment Period and the 4-week Follow-up Period. • Changes from Baseline in safety laboratory values (haematology, serum chemistry, and urinalysis) over the 16-week Treatment Period and the 4-week Follow-up Period. • Hospital Anxiety and Depression Scale at each visit except Week 2. • Columbia-Suicide Severity Rating Scale (C-SSRS) at each visit except Weeks 1 and 2. Exploratory Endpoints: • Change from Baseline in Physician's Global Assessment of Fingernails (PGA-F) at Week 16. • Change in Scalp-Specific Investigator Global Assessment (ss-IGA) from Baseline at Week 16 in the subgroup of patients with Baseline score of at least 2 (mild scalp psoriasis). • Change from Baseline of scalp itch Numeric Rating Scale (NRS) at Week 16 in the subgroup of patients with Baseline score of at least 4 on the 11-point NRS. • Change from Baseline in joint pain NRS at Week 16 in patients with psoriatic arthritis (PsA) and a Baseline joint pain score of at least 4. • Change in cardiovascular risk factors at Week 16. The following parameters will be collected: weight, body mass index, waist and hip circumferences, blood pressure, fasting serum glucose, triglycerides, cholesterol (total and high-density lipoprotein/low-density lipoprotein fractions), and C-reactive protein. • Change from Baseline in skin biomarkers at Week 16 collected via tape stripping and analysed using proteomic methods. • Plasma levels of the drug and its metabolites at scheduled visits. Study Design
At Baseline and each visit from Week 4 onwards, PASI, BSA, IGA, and PSS were assessed. Quality of life was assessed by administration of DLQI at Baseline and at Weeks 16 and 20 visits. Additional efficacy parameters include: an ss-IGA, a Physician Global Assessment of fingernail psoriasis (PGA-F), and patient's joint pain NRS for those with a diagnosis of PsA. These parameters were assessed at Baseline and Weeks 16 and 20. Safety evaluations include adverse events (Aes), laboratory and vital sign assessments, physical examinations, as well as mood change evaluation by patient (Hospital Anxiety and Depression Scale) and suicidal ideation evaluation by Investigator (C-SSRS). A panel of cardiovascular risk factors were assessed at Baseline and Week 16.

[2] = system: TARC and other inflammatory markers in atopic dermatitis skin lesions; test: Skin tape strip biomarkers (OLINK FLEX panel) in the phase 2b atopic dermatitis study (Example 11); format: in vivo, human; settings: all treatment arms (20, 30, 40 mg BID)
Description: Stratum corneum skin samples were collected at the designated time points using the tape stripping method to evaluate biomarker expression levels. Tape stripping is a minimally invasive, nonscarring approach using serial adhesive films to capture the stratum corneum and the upper part of the granular layer.
At Baseline, before administration of study drug, 1 lesional and 1 non-lesional area were identified, and 20 consecutive skin samples were collected from each area. At Week 16, the same procedure was repeated only from the same lesional areas sampled at Baseline.
Skin tape strip samples were taken from lesional and non-lesional skin at baseline and lesional skin at week 16 of patients participating in the phase 2b, double-blinded, placebo-controlled, dose-finding study (20 mg, 30 mg and 40 mg orismilast modified release tablets BID) in patients with moderate-to-severe atopic dermatitis (NCT05469464) described in Example 8. […] The primary objective of the biomarker study was to evaluate the effect of orismilast on a broad spectrum of inflammatory markers in atopic dermatitis skin lesions using tape strips as a non-invasive sampling technology combined with the Olink® technology (OLINK® FLEX panel) using analogous methods to those described in Example 10.
A linear mixed effect model was used on all patients to estimate Ismeans with standard error and adjusted p value.

Structure (SMILES): O=C(Cc1c(Cl)c[n+]([O-])cc1Cl)c1ccc(OC(F)F)c2c1OC1(CCS(=O)(=O)CC1)O2 [orismilast, 2-(3,5-dichloro-1-oxidopyridin-1-ium-4-yl)-1-[7-(difluoromethoxy)-1′,1′-dioxospiro[1,3-benzodioxole-2,4′-thiane]-4-yl]ethanone]
- Abdominal pain upper, adverse event leading to treatment discontinuation ([1]; 20 mg BID): 2.1%
- Abdominal pain upper, treatment-emergent adverse event ([1]; 20 mg BID): 2.1%
- Diarrhea (incl. loose stool), adverse event leading to treatment discontinuation ([1]; 20 mg BID): 10.4%
- Diarrhea (incl. loose stool), treatment-emergent adverse event ([1]; 20 mg BID): 37.5%
- Dizziness, adverse event leading to treatment discontinuation ([1]; 20 mg BID): 2.1%
- Dizziness, treatment-emergent adverse event ([1]; 20 mg BID): 6.3%
- Headache, adverse event leading to treatment discontinuation ([1]; 20 mg BID): 2.1%
- Headache, treatment-emergent adverse event ([1]; 20 mg BID): 12.5%
- Nausea, adverse event leading to treatment discontinuation ([1]; 20 mg BID): 4.2%
- Nausea, treatment-emergent adverse event ([1]; 20 mg BID): 22.9%
- Vomiting, adverse event leading to treatment discontinuation ([1]; 20 mg BID): 0%
- Vomiting, treatment-emergent adverse event ([1]; 20 mg BID): 6.3%
- discontinuations due to adverse events ([1]; 20 mg BID): 21%
- Abdominal pain upper, adverse event leading to treatment discontinuation ([1]; 30 mg BID): 2.0%
- Abdominal pain upper, treatment-emergent adverse event ([1]; 30 mg BID): 6.0%
- Diarrhea (incl. loose stool), adverse event leading to treatment discontinuation ([1]; 30 mg BID): 6.0%
- Diarrhea (incl. loose stool), treatment-emergent adverse event ([1]; 30 mg BID): 48.0%
- Dizziness, adverse event leading to treatment discontinuation ([1]; 30 mg BID): 2.0%
- Dizziness, treatment-emergent adverse event ([1]; 30 mg BID): 14.0%
- Headache, adverse event leading to treatment discontinuation ([1]; 30 mg BID): 4.0%
- Headache, treatment-emergent adverse event ([1]; 30 mg BID): 26.6%
- Nausea, adverse event leading to treatment discontinuation ([1]; 30 mg BID): 8.0%
- Nausea, treatment-emergent adverse event ([1]; 30 mg BID): 38.0%
- Vomiting, adverse event leading to treatment discontinuation ([1]; 30 mg BID): 2.0%
- Vomiting, treatment-emergent adverse event ([1]; 30 mg BID): 8.0%
- discontinuations due to adverse events ([1]; 30 mg BID): 20%
- Abdominal pain upper, adverse event leading to treatment discontinuation ([1]; 40 mg BID): 7.5%
- Abdominal pain upper, treatment-emergent adverse event ([1]; 40 mg BID): 11.3%
- Diarrhea (incl. loose stool), adverse event leading to treatment discontinuation ([1]; 40 mg BID): 20.8%
- Diarrhea (incl. loose stool), treatment-emergent adverse event ([1]; 40 mg BID): 45.3%
- Dizziness, adverse event leading to treatment discontinuation ([1]; 40 mg BID): 1.9%
- Dizziness, treatment-emergent adverse event ([1]; 40 mg BID): 15.1%
- Headache, adverse event leading to treatment discontinuation ([1]; 40 mg BID): 3.8%
- Headache, treatment-emergent adverse event ([1]; 40 mg BID): 20.8%
- Nausea, adverse event leading to treatment discontinuation ([1]; 40 mg BID): 11.3%
- Nausea, treatment-emergent adverse event ([1]; 40 mg BID): 41.5%
- Vomiting, adverse event leading to treatment discontinuation ([1]; 40 mg BID): 5.7%
- Vomiting, treatment-emergent adverse event ([1]; 40 mg BID): 13.2%
- TARC in lesional skin at week 16 of treatment [2]: significant reduction
